Results published in patent US11708367B2, “Compounds for the treatment of kinase-dependent disorders” (Exelixis, Inc., priority 2018, dated 2023).

Tests used:
Type in all cases: biochemical
[1] = target: Human Axl (Homo sapiens (Human), UniProt P30530, Q764R); test: Human AXL kinase assay (33P radiometric, KinaseProfiler); details: 10 μM ATP
Method: (§1) Kinase activity and compound inhibition were investigated using the ^33P-Phosphoryl transfer radiometric kinase assay, performed using the KinaseProfiler™ service of Eurofins Pharma Discovery Services UK Limited. Dose-response experiments were performed using nine compound concentrations in a 96-well microtiter plate. For each assay, all compounds were prepared to a 50× final assay concentration (50 μM) in 100% DMSO, then diluted in a half-log series, with the final top concentration at 1 μM. This working stock of the compound was added to the assay well as the first component in the reaction, followed by the remaining components as detailed in the following assay protocols below. The positive control wells (100% kinase activity) contain all components of the reaction including 2% DMSO (control for solvent effects), except the compound of interest. Blank wells contain all components of the reaction, with the reference inhibitor, staurosporine. This reference compound was used to abolish kinase activity and generated the 0% kinase activity base-line. IC50 values were calculated by nonlinear regression analysis using the sigmoidal dose-response (variable slope) curve fit on XLFit version 5.3 (ID Business Solutions).
Human Axl (residues H473-A894 with Q764R, 161 nM) was incubated with 8 mM MOPS pH 7.0, 0.2 mM EDTA, 250 μM KKSRGDYMTMQIG (SEQ ID NO. 43), 10 mM magnesium acetate and 10 μM [γ-33P-ATP]. The reaction was initiated by the addition of the Mg/ATP mix. After incubation for 40 minutes at room temperature, the reaction was stopped by the addition of phosphoric acid to a concentration of 0.5%. A reaction aliquot of 10 μL was then spotted onto a P30 filtermat and washed four times for 4 minutes in 0.425% phosphoric acid and once in methanol prior to drying and scintillation counting. Incorporated ^33P was measured using the Wallac Microbeta scintillation counter (Perkin Elmer).

[2] = target: Mer (Homo sapiens (Human), UniProt Q12866); test: Human Mer kinase assay (33P radiometric, KinaseProfiler); details: 10 μM ATP
Method: as §1
Human Mer (residues R557-E882 with H628Q and R794A, 0.7 nM) was incubated with 8 mM MOPS pH 7.0, 0.2 mM EDTA, 30 mM NaCl, 250 μM GGMEDIYFEFMGGKKK (SEQ ID NO. 44), 10 mM magnesium acetate, and 10 μM [γ-33P-ATP]. The reaction was initiated by the addition of the Mg/ATP mix. After incubation for 40 minutes at room temperature, the reaction was stopped by the addition of phosphoric acid to a concentration of 0.5%. A reaction aliquot of 10 μL was then spotted onto a P30 filtermat and washed four times for 4 minutes in 0.425% phosphoric acid and once in methanol prior to drying and scintillation counting. Incorporated 33P was measured using the Wallac Microbeta scintillation counter (Perkin Elmer).

[3] = target: Met (Homo sapiens (Human), UniProt P08581); test: Human Met kinase assay (33P radiometric, KinaseProfiler); details: 10 μM ATP, read-out: c-Met IC50
Method: as §1
Human Met (residues R974-S1390 with A1209G and V1290L, 3.4 nM) was incubated with 8 mM MOPS pH 7.0, 0.2 mM EDTA, 250 µM KKKGQEEEYVFIE (SEQ ID NO. 45), 1 mM sodium orthovanadate, 5 mM […], 10 mM magnesium acetate, and 10 μM [γ-33P-ATP]. The reaction was initiated by the addition of the Mg/ATP mix. After incubation for 40 minutes at room temperature, the reaction was stopped by the addition of phosphoric acid to a concentration of 0.5%. A reaction aliquot of 10 μL was then spotted onto a P30 filtermat and washed four times for 4 minutes in 0.425% phosphoric acid and once in methanol prior to drying and scintillation counting. Incorporated 33P was measured using the Wallac Microbeta scintillation counter (Perkin Elmer).

Chain of Mer (Q12866 557-882): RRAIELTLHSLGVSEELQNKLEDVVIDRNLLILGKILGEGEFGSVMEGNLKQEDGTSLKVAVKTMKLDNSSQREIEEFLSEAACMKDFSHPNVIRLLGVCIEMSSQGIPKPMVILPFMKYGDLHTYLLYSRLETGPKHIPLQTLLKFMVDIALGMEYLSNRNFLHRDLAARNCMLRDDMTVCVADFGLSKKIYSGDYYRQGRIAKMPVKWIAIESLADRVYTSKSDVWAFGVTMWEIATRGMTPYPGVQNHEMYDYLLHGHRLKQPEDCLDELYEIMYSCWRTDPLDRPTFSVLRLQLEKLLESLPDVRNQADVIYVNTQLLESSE
Chain of Human Axl (P30530 473-894 Q764R): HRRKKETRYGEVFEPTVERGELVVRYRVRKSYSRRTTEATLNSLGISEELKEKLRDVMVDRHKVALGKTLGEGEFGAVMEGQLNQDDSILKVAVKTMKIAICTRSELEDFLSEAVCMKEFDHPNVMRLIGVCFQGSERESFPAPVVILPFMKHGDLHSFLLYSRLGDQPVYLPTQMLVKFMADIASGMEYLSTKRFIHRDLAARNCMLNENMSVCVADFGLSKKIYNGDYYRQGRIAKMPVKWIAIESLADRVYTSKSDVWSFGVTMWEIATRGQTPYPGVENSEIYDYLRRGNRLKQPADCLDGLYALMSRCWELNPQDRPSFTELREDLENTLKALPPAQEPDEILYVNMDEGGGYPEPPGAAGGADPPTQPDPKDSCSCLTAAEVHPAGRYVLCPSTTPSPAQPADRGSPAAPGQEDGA

SMILES | IC50 [1] | IC50 [2] | IC50 [3]
O=C(Nc1ccc(F)cc1)C1(C(=O)Nc2ccc(Oc3ncnc4cccnc34)cc2)CC1 [Compound 7, 1-N′-(4-fluorophenyl)-1-N-(4-pyrido[3,2-d]pyrimidin-4-yloxyphenyl)cyclopropane-1,1-dicarboxamide] | > 1000 nM | > 1000 nM | 100 to 1000 nM
O=C(Nc1ccc(F)cc1)C1(C(=O)Nc2ccc(Oc3ncnc4cc(Cl)cnc34)cc2)CC1 [Compound 12, 1-N-[4-(7-chloropyrido[3,2-d]pyrimidin-4-yl)oxyphenyl]-1-N′-(4-fluorophenyl)cyclo-propane-1,1-dicarboxamide] | > 1000 nM | 100 to 1000 nM | 100 to 1000 nM
O=C(Nc1ccc(F)cc1)C1(C(=O)Nc2ccc(Oc3ncnc4cnccc34)cc2)CC1 [Compound 85, 1-N′-(4-fluorophenyl)-1-N-(4-pyrido[3,4-d]pyrimidin-4-yloxyphenyl)cyclopropane-1,1-dicarboxamide] | 100 to 1000 nM | 100 to 1000 nM | 100 to 1000 nM
O=C(Nc1ccc(F)cc1)C1(C(=O)Nc2ccc(Oc3ncnc4cnc(Cl)cc34)cc2)CC1 [Compound 88, 1-N-[4-(6-chloropyrido[3,4-d]pyrimidin-4-yl)oxy-phenyl]-1-N′-(4-fluoro-phenyl)cyclopropane-1,1-dicarboxamide] | 100 to 1000 nM | 100 to 1000 nM | > 1000 nM
O=C(Nc1ccc(F)cc1)C1(C(=O)Nc2ccc(Oc3ncnc4ccncc34)cc2)CC1 [Compound 95, 1-N′-(4-fluorophenyl)-1-N-(4-pyrido[4,3-d]pyrimidin-4-yloxyphenyl)cyclo-propane-1,1-dicarboxamide] | 100 to 1000 nM | 100 to 1000 nM | 100 to 1000 nM
O=C(Nc1ccc(F)cc1)C1(C(=O)Nc2ccc(Oc3ncnc4cc(Cl)ncc34)cc2)CC1 [Compound 101, 1-N-[4-(7-chloropyrido[4,3-d]pyrimidin-4-yl)oxy-phenyl]-1-N′-(4-fluorophenyl)cyclo-propane-1,1-dicarboxamide] | 100 to 1000 nM | 100 to 1000 nM | 100 to 1000 nM
N#Cc1ccc2ncnc(Oc3ccc(NC(=O)C4(C(=O)Nc5ccc(F)cc5)CC4)cc3)c2c1 [Compound 106, 1-N-[4-(6-cyanoquinazolin-4-yl)oxyphenyl]-1-N′-(4-fluorophenyl)cyclopropane-1,1-dicarboxamide] | > 1000 nM | 100 to 1000 nM | > 1000 nM

Results, then the compound that gave them:

IC50 [1] | IC50 [2] | IC50 [3] | SMILES
100 to 1000 nM | 100 to 1000 nM | 100 to 1000 nM | O=C(Nc1ccc(F)cc1)C1(C(=O)Nc2ccc(Oc3ncnc4cc(Br)cnc34)cc2)CC1 [Compound 13, 1-N-[4-(7-bromopyrido[3,2-d]pyrimidin-4-yl)oxyphenyl]-1-N′-(4-fluorophenyl)cyclo-propane-1,1-dicarboxamide]
100 to 1000 nM | 100 to 1000 nM | 10 to 100 nM | COc1cnc2c(Oc3ccc(NC(=O)C4(C(=O)Nc5ccc(F)cc5)CC4)cc3)ncnc2c1 [Compound 16, 1-N′-(4-fluorophenyl)-1-N-[4-(7-methoxy-pyrido[3,2-d]pyrimidin-4-yl)oxyphenyl]cyclo-propane-1,1-dicarboxamide]
100 to 1000 nM | 100 to 1000 nM | 100 to 1000 nM | Cc1cc2ncnc(Oc3ccc(NC(=O)C4(C(=O)Nc5ccc(F)cc5)CC4)cc3)c2nc1C [Compound 43, 1-N-[4-(6,7-dimethyl-pyrido[3,2-d]pyrimidin-4-yl)oxyphenyl]-1-N′-(4-fluorophenyl)cyclo-propane-1,1-dicarboxamide]
100 to 1000 nM | 100 to 1000 nM | 100 to 1000 nM | O=C(Nc1ccc(F)cc1)C1(C(=O)Nc2ccc(Oc3ncnc4cc5c(nc34)CCCC5)cc2)CC1 [Compound 52, 1-N′-(4-fluorophenyl)-1-N-[4-(6,7,8,9-tetrahydro-pyrimido[5,4-b]quinolin-4-yloxy)phenyl]cyclo-propane-1,1-dicarboxamide]
100 to 1000 nM | 10 to 100 nM | 100 to 1000 nM | COc1cc2ncnc(Oc3ccc(NC(=O)C4(C(=O)Nc5ccc(F)cc5)CC4)cc3)c2nc1C#N [Compound 57, 1-N-[4-(6-cyano-7-methoxypyrido[3,2-d]pyrimidin-4-yl)oxyphenyl]-1-N′-(4-fluorophenyl)cyclopropane-1,1-dicarboxamide]
